What was measured:
[1] = target: Mitogen-activated protein kinase kinase kinase 5 (Homo sapiens, UniProt Q99683); assay: Inhibition of human recombinant ASK1 (649 to 946 residues) using myelin as substrate incubated for 40 mins in presence of [gamma-33ATP] by radiometric scintillation counting analysis
[2] = target: Tyrosine-protein kinase Fer (Homo sapiens, UniProt P16591); assay: Inhibition of recombinant human FER (541 to end residues) using KKKSPGEYVNIEF as substrate after 40 mins in presence of [gamma-33ATP] by radiometric scintillation counting analysis
[3] = target: BDNF/NT-3 growth factors receptor (Homo sapiens, UniProt Q16620); assay: Inhibition of recombinant human TRKB (455 to end residues) using poly(Glu, Tyr) 4:1 as substrate incubated for 40 mins in presence of [gamma33P]ATP by radiometric scintillation counting analysis
[4] = target: Homeodomain-interacting protein kinase 4 (Homo sapiens, UniProt Q8NE63); assay: Inhibition of human recombinant full length HIPK4 using RRRFRPASPLRGP as substrate after 40 mins by [gamma-33ATP] radiometric assay
[5] = target: Serine/threonine-protein kinase pim-3 (Homo sapiens, UniProt Q86V86); assay: Inhibition of recombinant human Pim3 (2 to end residues) using RSRHSSYPAGT as substrate incubated for 40 mins in presence of [gamma33P]ATP by radiometric scintillation counting analysis
[6] = target: MAPK/MAK/MRK overlapping kinase (Homo sapiens, UniProt Q9UQ07); assay: Inhibition of recombinant human MOK (1 to 343 residues) using RSRSRSRSRSRSR as substrate incubated for 40 mins in presence of [gamma-33ATP by radiometric scintillation counting analysis
[7] = target: 3-phosphoinositide-dependent protein kinase 1 (Homo sapiens, UniProt O15530); assay: Inhibition of recombinant human PDK1 (52 to end residues) using KTFCGTPEYLAPE as substrate incubated for 40 mins in presence of [gamma33P]ATP by radiometric scintillation counting analysis
[8] = target: Mitogen-activated protein kinase 10 (Homo sapiens, UniProt P53779); assay: Inhibition of recombinant full length human JNK3 using peptide substrate after 40 mins by [gamma-33ATP] by radiometric scintillation counting analysis
[9] = target: Dual specificity protein kinase CLK2 (Homo sapiens, UniProt P49760); assay: Inhibition of recombinant human CLK2 (138 to end residues) using YRRAAVPPSPSLSR as substrate incubated 40 mins in presence of [gamma-33ATP] by radiometric scintillation counting analysis
[10] = target: Dual specificity protein kinase CLK3 (Homo sapiens, UniProt P49761); assay: Inhibition of recombinant full length human CLK3 using ERMRPRKRQGSVR as substrate incubated 40 mins in presence of [gamma-33ATP] by radiometric scintillation counting analysis
[11] = target: Platelet-derived growth factor receptor alpha (Homo sapiens, UniProt P16234); assay: Inhibition of human PDGFRalpha (550 to end residues) using poly(Glu, Tyr) 4:1 as substrate measured after 40 mins in presence of [gamma33P]ATP by radiometric scintillation counting analysis
[12] = target: Ribosomal protein S6 kinase beta-1 (Homo sapiens, UniProt P23443, T412E); assay: Inhibition of recombinant human p70S6K T412E mutant (1 to 421 residues) using KKRNRTLTV as substrate measured after 40 mins in presence of [gamma33P]ATP by radiometric scintillation counting analysis
[13] = target: Cyclin-dependent kinase-like 3 (Homo sapiens, UniProt Q8IVW4); assay: Inhibition of recombinant full length human CDKL3 using RRRFRPASPLRGPPK as substrate incubated for 120 mins in presence of [gamma-33ATP] by radiometric scintillation counting analysis
[14] = target: Cyclin-dependent kinase 13/Cyclin-K (Homo sapiens, UniProt Q14004); assay: Inhibition of recombinant full length human CDK13/cyclinK using RSRSRSRSRSRSR as substrate incubated for 120 mins in presence of [gamma-33ATP] by radiometric scintillation counting analysis; format: protein-complex assay
[15] = target: Serine/threonine-protein kinase Nek7 (Homo sapiens, UniProt Q8TDX7); assay: Inhibition of recombinant human NEK7 (2 to end residues) using FLAKSFGSPNRAYKK as substrate measured after 40 mins in presence of [gamma33P]ATP by radiometric scintillation counting analysis
LIM domain kinase 1 = LIM domain kinase 1 (Homo sapiens, UniProt P53667); assay: Inhibition of recombinant human LIMK1 (285 to 638 residues) using cofilin as substrate after 40 mins in presence of [gamma-33ATP] by radiometric scintillation counting analysis
[16] = target: Serine/threonine-protein kinase B-raf (Homo sapiens, UniProt P15056, V600E); assay: Inhibition of recombinant full length human B-Raf V599E mutant (416 to end residues) using myelin basic protein as substrate incubated for 40 mins in presence of [gamma-33ATP] by radiometric scintillation counting analysis
[17] = target: Dual specificity tyrosine-phosphorylation-regulated kinase 1B (Homo sapiens, UniProt Q9Y463); assay: Inhibition of recombinant full length human DYRK1B using RRRFRPASPLRGPP as substrate after 40 mins in presence of [gamma-33ATP] by radiometric scintillation counting analysis
[18] = target: Serine/threonine-protein kinase Chk2 (Homo sapiens, UniProt O96017); assay: Inhibition of recombinant human CHK2 (5 to end residues) using KKKVSRSGLYRSP as substrate incubated for 40 mins in presence of [gamma-33ATP] by radiometric scintillation counting analysis
[19] = target: Receptor-interacting serine/threonine-protein kinase 2 (Homo sapiens, UniProt O43353); assay: Inhibition of recombinant human RIPK2 (1 to 299 residues) using MBP as substrate incubated for 120 mins in presence of [gamma33P]ATP by radiometric scintillation counting analysis
[20] = target: Epidermal growth factor receptor (Homo sapiens, UniProt P00533, L858R); assay: Inhibition of recombinant human EGFR L858R mutant (696 to end residues) using poly(Glu, Tyr) 4:1 as substrate after 40 mins in presence of [gamma-33ATP] by radiometric scintillation counting analysis
[21] = target: Serine/threonine-protein kinase Nek4 (Homo sapiens, UniProt P51957, P225A); assay: Inhibition of recombinant full-length human NEK4 P225A mutant using myelin basic protein as substrate measured after 40 mins in presence of [gamma33P]ATP by radiometric scintillation counting analysis
[22] = target: Eukaryotic translation initiation factor 2-alpha kinase 1 (Homo sapiens, UniProt Q9BQI3); assay: Inhibition of human recombinant HRI (140 to end residues) using RSRSRSRSRSRSR as substrate after 120 mins by [gamma-33ATP] radiometric assay
[23] = target: Tyrosine-protein kinase receptor TYRO3 (Homo sapiens, UniProt Q06418); assay: Inhibition of recombinant human RSE (451 to end residues) using KVEKIGEGTYGVV as substrate incubated for 40 mins in presence of [gamma33P]ATP by radiometric scintillation counting analysis
[24] = target: Mitogen-activated protein kinase 11 (Homo sapiens, UniProt Q15759); assay: Inhibition of recombinant human full length SAPK2b using myelin basic protein as substrate incubated for 40 mins in presence of [gamma33P]ATP by radiometric scintillation counting analysis

Measured: IC50

Mitogen-activated protein kinase kinase kinase 5, sequence (Q99683 whole entry, the tested form may be a part): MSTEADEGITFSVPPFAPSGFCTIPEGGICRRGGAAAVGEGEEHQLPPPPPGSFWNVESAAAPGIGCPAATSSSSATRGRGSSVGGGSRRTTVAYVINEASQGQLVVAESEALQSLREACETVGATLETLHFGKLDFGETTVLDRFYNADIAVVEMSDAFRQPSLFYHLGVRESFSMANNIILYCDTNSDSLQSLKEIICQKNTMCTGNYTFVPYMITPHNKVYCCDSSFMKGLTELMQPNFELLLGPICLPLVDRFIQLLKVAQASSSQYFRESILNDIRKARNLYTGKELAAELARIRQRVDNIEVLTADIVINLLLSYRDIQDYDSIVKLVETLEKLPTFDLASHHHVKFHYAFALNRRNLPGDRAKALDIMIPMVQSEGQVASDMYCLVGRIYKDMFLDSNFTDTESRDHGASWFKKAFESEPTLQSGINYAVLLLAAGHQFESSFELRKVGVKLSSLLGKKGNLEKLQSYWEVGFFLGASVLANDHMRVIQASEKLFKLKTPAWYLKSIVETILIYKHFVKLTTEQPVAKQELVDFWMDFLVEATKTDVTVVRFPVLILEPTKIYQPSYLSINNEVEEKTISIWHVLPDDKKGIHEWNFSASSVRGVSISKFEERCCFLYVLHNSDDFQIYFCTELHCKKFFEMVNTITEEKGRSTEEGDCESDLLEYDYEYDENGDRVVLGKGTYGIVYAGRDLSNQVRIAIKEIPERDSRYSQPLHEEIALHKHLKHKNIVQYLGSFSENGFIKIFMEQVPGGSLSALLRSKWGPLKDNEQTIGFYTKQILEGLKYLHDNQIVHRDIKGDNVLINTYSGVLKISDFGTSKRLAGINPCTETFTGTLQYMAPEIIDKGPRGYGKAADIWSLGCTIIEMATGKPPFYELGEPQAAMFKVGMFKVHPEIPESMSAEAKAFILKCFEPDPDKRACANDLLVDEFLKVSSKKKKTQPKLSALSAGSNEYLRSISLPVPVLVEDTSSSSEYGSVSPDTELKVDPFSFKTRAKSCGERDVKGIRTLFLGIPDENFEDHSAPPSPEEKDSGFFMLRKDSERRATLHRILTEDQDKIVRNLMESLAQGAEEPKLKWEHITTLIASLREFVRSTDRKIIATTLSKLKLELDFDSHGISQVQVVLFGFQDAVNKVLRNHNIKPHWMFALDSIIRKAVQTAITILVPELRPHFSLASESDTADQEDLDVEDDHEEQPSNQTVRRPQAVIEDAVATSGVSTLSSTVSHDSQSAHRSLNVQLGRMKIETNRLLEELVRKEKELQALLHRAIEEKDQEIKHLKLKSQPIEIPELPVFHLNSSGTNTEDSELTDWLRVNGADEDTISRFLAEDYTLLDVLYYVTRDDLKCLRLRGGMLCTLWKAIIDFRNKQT
Dual specificity protein kinase CLK2, sequence (P49760 whole entry): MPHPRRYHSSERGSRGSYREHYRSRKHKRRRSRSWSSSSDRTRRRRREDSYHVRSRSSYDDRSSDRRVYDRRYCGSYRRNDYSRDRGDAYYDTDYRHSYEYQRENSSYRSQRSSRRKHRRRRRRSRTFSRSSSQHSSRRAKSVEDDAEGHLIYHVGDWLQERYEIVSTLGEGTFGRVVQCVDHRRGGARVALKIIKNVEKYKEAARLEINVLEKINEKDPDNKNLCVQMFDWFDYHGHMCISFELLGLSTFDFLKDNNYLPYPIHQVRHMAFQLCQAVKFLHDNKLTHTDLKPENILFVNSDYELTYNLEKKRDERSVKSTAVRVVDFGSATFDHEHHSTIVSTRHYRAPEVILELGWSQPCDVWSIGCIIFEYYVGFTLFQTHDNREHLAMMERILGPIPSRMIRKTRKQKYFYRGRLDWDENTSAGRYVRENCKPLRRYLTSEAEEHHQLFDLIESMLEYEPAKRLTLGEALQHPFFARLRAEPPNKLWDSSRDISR
Mitogen-activated protein kinase 11, sequence (Q15759 whole entry): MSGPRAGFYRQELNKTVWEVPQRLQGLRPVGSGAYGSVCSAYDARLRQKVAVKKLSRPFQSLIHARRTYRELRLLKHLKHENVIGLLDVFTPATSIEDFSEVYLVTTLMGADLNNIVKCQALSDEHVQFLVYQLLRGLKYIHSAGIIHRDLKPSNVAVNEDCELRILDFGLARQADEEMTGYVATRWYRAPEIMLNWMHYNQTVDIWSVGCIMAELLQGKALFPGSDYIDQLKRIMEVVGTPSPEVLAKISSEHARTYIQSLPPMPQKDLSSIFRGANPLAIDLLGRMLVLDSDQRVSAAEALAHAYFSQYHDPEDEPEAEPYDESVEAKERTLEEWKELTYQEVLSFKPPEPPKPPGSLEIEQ
Homeodomain-interacting protein kinase 4, sequence (Q8NE63 whole entry): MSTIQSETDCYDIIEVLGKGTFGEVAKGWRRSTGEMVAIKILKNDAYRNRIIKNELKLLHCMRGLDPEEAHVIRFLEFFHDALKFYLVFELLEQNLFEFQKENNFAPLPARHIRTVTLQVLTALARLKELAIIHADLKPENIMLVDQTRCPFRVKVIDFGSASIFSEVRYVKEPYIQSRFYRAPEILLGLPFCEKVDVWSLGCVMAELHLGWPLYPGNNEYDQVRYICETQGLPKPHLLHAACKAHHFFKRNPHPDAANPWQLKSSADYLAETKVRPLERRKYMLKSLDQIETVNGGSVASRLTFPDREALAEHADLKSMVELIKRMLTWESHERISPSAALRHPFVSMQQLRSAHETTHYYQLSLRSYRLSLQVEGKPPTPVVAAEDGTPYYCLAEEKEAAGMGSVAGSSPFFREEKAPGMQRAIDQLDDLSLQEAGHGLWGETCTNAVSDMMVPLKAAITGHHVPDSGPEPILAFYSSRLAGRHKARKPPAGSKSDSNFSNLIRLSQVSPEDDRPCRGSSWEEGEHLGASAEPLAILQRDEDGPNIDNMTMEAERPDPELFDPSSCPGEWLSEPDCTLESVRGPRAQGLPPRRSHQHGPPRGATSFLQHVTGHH
Serine/threonine-protein kinase B-raf, sequence (P15056 2-766 V600E limits assumed): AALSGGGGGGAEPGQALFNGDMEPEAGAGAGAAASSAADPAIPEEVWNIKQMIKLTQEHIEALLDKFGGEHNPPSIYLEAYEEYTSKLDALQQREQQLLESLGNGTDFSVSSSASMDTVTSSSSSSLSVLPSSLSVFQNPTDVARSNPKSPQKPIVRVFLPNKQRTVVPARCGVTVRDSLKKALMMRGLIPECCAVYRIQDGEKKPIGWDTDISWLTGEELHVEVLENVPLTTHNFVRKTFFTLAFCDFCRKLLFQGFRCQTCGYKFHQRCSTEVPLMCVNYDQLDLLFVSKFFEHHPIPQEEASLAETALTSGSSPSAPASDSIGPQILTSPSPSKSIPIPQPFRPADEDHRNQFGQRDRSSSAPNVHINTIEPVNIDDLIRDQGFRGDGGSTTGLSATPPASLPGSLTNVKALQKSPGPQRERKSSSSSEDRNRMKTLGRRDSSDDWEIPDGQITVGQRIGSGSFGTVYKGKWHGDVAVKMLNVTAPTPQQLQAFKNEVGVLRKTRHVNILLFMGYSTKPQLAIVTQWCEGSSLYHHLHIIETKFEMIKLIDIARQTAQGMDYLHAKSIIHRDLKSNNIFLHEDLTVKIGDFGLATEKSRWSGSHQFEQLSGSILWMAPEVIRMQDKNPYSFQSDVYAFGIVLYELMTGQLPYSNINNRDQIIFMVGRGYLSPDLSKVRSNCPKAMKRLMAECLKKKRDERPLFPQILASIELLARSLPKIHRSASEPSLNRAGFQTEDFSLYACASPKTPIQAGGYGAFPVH
Mitogen-activated protein kinase 10, sequence (P53779 whole entry): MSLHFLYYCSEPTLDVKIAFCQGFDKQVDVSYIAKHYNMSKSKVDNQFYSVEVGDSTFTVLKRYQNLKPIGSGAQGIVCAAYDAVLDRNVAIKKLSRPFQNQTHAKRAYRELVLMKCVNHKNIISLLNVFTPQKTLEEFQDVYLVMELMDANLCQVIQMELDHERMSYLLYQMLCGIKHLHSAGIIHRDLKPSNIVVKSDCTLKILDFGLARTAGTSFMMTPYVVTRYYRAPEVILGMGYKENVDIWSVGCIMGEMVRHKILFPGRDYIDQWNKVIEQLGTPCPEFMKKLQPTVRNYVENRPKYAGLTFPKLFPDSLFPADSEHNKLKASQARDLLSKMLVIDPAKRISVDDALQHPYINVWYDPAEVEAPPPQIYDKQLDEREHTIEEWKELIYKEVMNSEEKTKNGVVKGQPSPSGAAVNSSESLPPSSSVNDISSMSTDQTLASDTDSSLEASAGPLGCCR
Tyrosine-protein kinase receptor TYRO3, sequence (Q06418 whole entry): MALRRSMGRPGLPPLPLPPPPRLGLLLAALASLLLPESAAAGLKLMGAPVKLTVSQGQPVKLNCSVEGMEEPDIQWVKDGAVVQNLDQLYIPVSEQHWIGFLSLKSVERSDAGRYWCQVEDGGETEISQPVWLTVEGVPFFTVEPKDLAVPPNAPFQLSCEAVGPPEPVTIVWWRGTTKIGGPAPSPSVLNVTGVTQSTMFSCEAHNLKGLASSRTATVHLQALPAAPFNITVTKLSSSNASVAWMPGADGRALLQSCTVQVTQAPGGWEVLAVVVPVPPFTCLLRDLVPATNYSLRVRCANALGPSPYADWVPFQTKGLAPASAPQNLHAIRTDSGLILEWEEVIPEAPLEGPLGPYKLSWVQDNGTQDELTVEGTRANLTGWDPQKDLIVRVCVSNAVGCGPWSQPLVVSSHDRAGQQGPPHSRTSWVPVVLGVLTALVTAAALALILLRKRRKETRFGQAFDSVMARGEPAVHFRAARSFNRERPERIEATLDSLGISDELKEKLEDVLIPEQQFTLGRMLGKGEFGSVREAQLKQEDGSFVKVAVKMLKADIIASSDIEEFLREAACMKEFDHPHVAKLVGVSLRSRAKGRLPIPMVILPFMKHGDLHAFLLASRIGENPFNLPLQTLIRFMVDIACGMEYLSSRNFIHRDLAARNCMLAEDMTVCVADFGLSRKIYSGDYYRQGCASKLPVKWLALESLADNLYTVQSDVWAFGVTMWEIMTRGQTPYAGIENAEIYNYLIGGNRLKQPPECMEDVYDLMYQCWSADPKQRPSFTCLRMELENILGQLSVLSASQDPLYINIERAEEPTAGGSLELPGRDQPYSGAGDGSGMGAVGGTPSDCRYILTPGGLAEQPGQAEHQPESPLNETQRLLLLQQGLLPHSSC

CN(C)c1ccc(C(=O)Nc2cccc(NC(=O)COc3ccc4c(=O)ccoc4c3)c2)cc1
> 10 µM: all assays above

— ChEMBL document CHEMBL4376834, “Discovery of 4H-Chromen-4-one Derivatives as a New Class of Selective Rho Kinase (ROCK) Inhibitors, which Showed Potent Activity in ex Vivo Diabetic Retinopathy Models” (J Med Chem, 2019)
